# Assay results published in patent US20170312253A1 (The Third Affiliated Hospital, Third Military Medical …, priority 2014, published 2017).
# Experiments:
# [1] = tested on: β-secretase (BACE1); test: Western blot of BACE1 expression in brain; type: in vivo; settings: AD mice brain
# Description: (§1) APPswe/PS1DE9 (AD) transgenic mice were purchased from Jackson Laboratory, USA (No. 005864), raised in the SPF grade animal house of The Third Affiliated Hospital of The Third Military Medical University. All the processes and correlated experiments applied to the mice were approved and filed with the Animal Ethics Committee of the Third Military Medical University. […] Alternatively, the daily dose for the prophylactic group may be 6.4 mg/kg, and the daily dose for the treatment group may be 12.8 mg/kg. […]
# (§2) The enzymes related with Aβ formation and degradation their molecule levels, the levels of hyperphosphprylated Tau proteins, and the levels of synaptic plasticity correlated proteins were all detected with Western blot. […] The blotting was detected with the following antibodies: APP C terminal antibody (171610, Millipore), BACE1 antibody (Millipore), Aβ antibody (6E10, Abcam), Nepriiysin antibody (Millipore), RAGE antibody (Millipore), LRP antibody (5A6, Calbiochem), IDE antibody (epitomics), phosphorylated Tau protein antibody, including pS396 (Signalway), pT231 (Signalway), pS199 (epitomics), pS262 (Abcam), SNAP25 antibody (Millipore), Synaptophysin antibody (Millipore), Synapsin I antibody (Millipore), VAMP1 antibody (Millipore), PSD95 antibody (Millipore), F-actin antibody (Actin) (Sigma-Aldrich). […]
# [2] = target: Aβ fibers (Aβ 42) (Homo sapiens, UniProt P05067); test: Thioflavin T fluorescence test, disaggregation of Aβ fibers; type: biochemical; settings: preformed Aβ fibers, Edaravone 0-100 μM, three days
# [3] = tested on: Aβ, CTFβ; test: Western blot of Aβ and CTFβ in brain; type: in vivo; settings: AD mice
# Description: as §1, §2
# [4] = tested on: APPswe/PS1DE9 (AD) transgenic mice; test: Y-maze (spontaneous alternation and novel arm probe test); type: in vivo; settings: AD mice vs control group
# Description: APPswe/PS1DE9 (AD) transgenic mice were purchased from Jackson Laboratory, USA (No. 005864), raised in the SPF grade animal house of The Third Affiliated Hospital of The Third Military Medical University. All the processes and correlated experiments applied to the mice were approved and filed with the Animal Ethics Committee of the Third Military Medical University. […] Alternatively, the daily dose for the prophylactic group may be 6.4 mg/kg, and the daily dose for the treatment group may be 12.8 mg/kg. Administration from 3-month old to 9-month old is the prophylactic test, and administration from 9-month old to 12-month old is the therapeutic test After reaching a stated time, the mice in each group received behavioral tests according to the method in the follows. Three mice in each group were taken for Golgi staining. The remaining mice were overly anaesthetized to receive brain anatomy. One side of the cerebral hemisphere was frozen and then for a biochemical analysis, and the other side of the cerebral hemisphere was fixed with 4% paraform for a histological analysis. All the mice in each group received behavioral tests, including a water maze, Y-maze and open field test. Water maze test includes four days of platform test and the subsequent probe test. The entire process was recorded by video, and analyzed with an image analysis software (ANY-maze, Stoelting). In the platform test, the escape path length and escape latency were measured and calculated. In the probe test, the time in each quadrant and the time across platform were measured. The spontaneous alternation test and novel arm probe test were carried out in the Y-maze. In the spontaneous alternation test, the mouse was free running In the maze for 5 min. Alternation is defined as entering the three arms connected with each other continuously. […] In the open field test, the mouse was put in the center of an open field for 3 min, and its path was recorded by a tracking system (Limelight, ActiMetrics). At the same time, the numbers of rearing, grooming, defecation and urination of the mouse were recorded.
# [5] = tested on: cerebral ischemia-reperfusion injury; settings: cited from earlier work
# [6] = tested on: Aβ deposition in the brain; test: Quantitative analysis of Aβ deposition in the brain (Congo red, 6E10); type: in vivo; settings: AD mice, Congo red staining and 6E10 immunostaining
# Description: (§3) APPswe/PS1DE9 (AD) transgenic mice were purchased from Jackson Laboratory, USA (No. 005864), raised in the SPF grade animal house of The Third Affiliated Hospital of The Third Military Medical University. All the processes and correlated experiments applied to the mice were approved and filed with the Animal Ethics Committee of the Third Military Medical University. […] Alternatively, the daily dose for the prophylactic group may be 6.4 mg/kg, and the daily dose for the treatment group may be 12.8 mg/kg. Administration from 3-month old to 9-month old is the prophylactic test, and administration from 9-month old to 12-month old is the therapeutic test After reaching a stated time, the mice in each group received behavioral tests according to the method in the follows. Three mice in each group were taken for Golgi staining. The remaining mice were overly anaesthetized to receive brain anatomy. One side of the cerebral hemisphere was frozen and then for a biochemical analysis, and the other side of the cerebral hemisphere was fixed with 4% paraform for a histological analysis.
# The compact Aβ plaque was stained and labelled with Congo red. […] The Aβ plaques in the neopallium and hippocampal area were quantitatively analyzed with ImageJ analysis software to obtain the area percentage of the Aβ plaque and the quantities in a unit area.
# [7] = target: Aβ42 (Homo sapiens, UniProt P05067); test: Thioflavin T fluorescence test, inhibition of Aβ aggregation; type: biochemical; settings: 10 μM Aβ 42, Edaravone 0-100 μM, 37° C., two days
# [8] = tested on: astrocyte; test: Astrocyte reaction immunostaining (GFAP); type: in vivo; settings: AD mice
# Description: as §3
# Immunohistochemistry in the method of bleach section was carried out according to the previous steps. The primary antibodies were rabbit-anti-mouse CD45 antibody (for labelling microglias), rabbit-anti-mouse GFAP (for labelling astrocytes) and rabbit-anti-mouse pSer396-Tau antibody, respectively. […]
# [9] = tested on: BACE; test: In vitro test of BACE expression
# Aβ42, sequence (P05067 672-713 limits assumed): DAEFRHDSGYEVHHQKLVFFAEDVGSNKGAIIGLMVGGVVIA
# Aβ fibers (Aβ 42), sequence (P05067 672-713 limits assumed): as above
smiles,measurement,setting,value
"CC1=NN(c2ccccc2)C(=O)C1 [Edaravone, 3-methyl-1-phenyl-2-pyrazolin-5-one]",expression of β-secretase (BACE1),[1],significant decrease
same,disaggregation of formed Aβ fibers (thioflavin T),[2],disaggregate the formed Aβ fibers or larger aggregates effectively
same,formation of Aβ in the brain (Western blot),[3],reduce the formation of Aβ in the brain
same,formation of CTFβ (Western blot),[3],decrease the formation of CTFβ
same,Y-maze alternation proportion,[4],also significantly increased
same,Y-maze arm entry,[4],significantly higher than in the control group
same,Y-maze proportion of the novel arm entry,[4],significantly increased
same,cerebral ischemia-reperfusion injury area,[5]; previous studies,reduce cerebral ischemia-reperfusion injury area
same,gene expression of the Fas/FasL signaling pathway,[5]; transient focal ischemia in rats,suppress the gene expression of the Fas/FasL signaling pathway
same,"Aβ deposition in the brain, of the control group",[6],about 50%
same,inhibition of Aβ aggregation (thioflavin T),[7],effectively inhibit Aβ aggregation in a dose-dependent manner
same,astrocyte reaction level in the brain,[8]; p.o.,"significantly reduced, too"
same,astrocyte reaction in the brain,[8]; prophylactic and therapeutic test,all reduced significantly
same,BACE expression in vitro,[9],inhibits the BACE expression
